According to patent US20230257372A1 (CHONG KUN DANG PHARMACEUTICAL CORP., priority 2020, published 2023):
pIC50: −log10 of the molar value. Where two headings read alike, the source gives them in different places.

What was measured:
[1] = tested on: hippocampal neurons from a Sprague-Dawley (SD) rat fetus; experiment: Effect of HDAC6-specific inhibitor on axonal transport of mitochondria in amyloid-beta treated neurons; format: cell-based; conditions: transport velocity of mitochondria in neuronal axon after normalization; vehicle = 100%, amyloid beta treatment group = 0%; compound treatment for three hours
Method: On the 17th to 18th days (E17-18) of insemination, the hippocampal neurons from a Sprague-Dawley (SD) rat fetus were cultured in a culture container for imaging, which had been coated with extracellular matrix, and were treated with amyloid-beta protein fragments at a concentration of […]. In 24 hours later, the neurons were treated with the compound on the 8th day of in vitro culture. In three hours later, the resulting neurons were treated with MitoTracker Red CMXRos (Life Technologies, NY, USA) for last five minutes to stain mitochondria. An image on the axonal transport of stained neuron mitochondria was taken with a confocal microscope (Leica SP8; Leica microsystems, UK) at an interval of one second for one minute to measure a transport velocity of each mitochondria per second with an IMARIS analysis program (BITPLANE, Zurich, Switzerland).
In result, after setting a section, in which the group treated with amyloid-beta had shown a significant decrease in the transport velocity of mitochondria compared to a vehicle, it was confirmed for 1,3,4-oxadiazole triazol derivative compounds of the present invention, stereoisomers thereof or pharmaceutically acceptable salts thereof that the vehicles is represented as 100%, the amyloid beta treatment group is represented as 0%, a velocity distribution of the compound after normalization is represented as *, 0%˜50%; **, 50%˜100%; ***, >100%.

[2] = target: T1, human recombinant HDAC6 (Homo sapiens, UniProt Q9UBN7); experiment: HDAC6 enzyme activity inhibition (HDAC Fluorimetric Drug Discovery Kit); format: biochemical
T1 construct: purchased Calbiochem Inc. 382180
T1 sequence (Q9UBN7 1-1215): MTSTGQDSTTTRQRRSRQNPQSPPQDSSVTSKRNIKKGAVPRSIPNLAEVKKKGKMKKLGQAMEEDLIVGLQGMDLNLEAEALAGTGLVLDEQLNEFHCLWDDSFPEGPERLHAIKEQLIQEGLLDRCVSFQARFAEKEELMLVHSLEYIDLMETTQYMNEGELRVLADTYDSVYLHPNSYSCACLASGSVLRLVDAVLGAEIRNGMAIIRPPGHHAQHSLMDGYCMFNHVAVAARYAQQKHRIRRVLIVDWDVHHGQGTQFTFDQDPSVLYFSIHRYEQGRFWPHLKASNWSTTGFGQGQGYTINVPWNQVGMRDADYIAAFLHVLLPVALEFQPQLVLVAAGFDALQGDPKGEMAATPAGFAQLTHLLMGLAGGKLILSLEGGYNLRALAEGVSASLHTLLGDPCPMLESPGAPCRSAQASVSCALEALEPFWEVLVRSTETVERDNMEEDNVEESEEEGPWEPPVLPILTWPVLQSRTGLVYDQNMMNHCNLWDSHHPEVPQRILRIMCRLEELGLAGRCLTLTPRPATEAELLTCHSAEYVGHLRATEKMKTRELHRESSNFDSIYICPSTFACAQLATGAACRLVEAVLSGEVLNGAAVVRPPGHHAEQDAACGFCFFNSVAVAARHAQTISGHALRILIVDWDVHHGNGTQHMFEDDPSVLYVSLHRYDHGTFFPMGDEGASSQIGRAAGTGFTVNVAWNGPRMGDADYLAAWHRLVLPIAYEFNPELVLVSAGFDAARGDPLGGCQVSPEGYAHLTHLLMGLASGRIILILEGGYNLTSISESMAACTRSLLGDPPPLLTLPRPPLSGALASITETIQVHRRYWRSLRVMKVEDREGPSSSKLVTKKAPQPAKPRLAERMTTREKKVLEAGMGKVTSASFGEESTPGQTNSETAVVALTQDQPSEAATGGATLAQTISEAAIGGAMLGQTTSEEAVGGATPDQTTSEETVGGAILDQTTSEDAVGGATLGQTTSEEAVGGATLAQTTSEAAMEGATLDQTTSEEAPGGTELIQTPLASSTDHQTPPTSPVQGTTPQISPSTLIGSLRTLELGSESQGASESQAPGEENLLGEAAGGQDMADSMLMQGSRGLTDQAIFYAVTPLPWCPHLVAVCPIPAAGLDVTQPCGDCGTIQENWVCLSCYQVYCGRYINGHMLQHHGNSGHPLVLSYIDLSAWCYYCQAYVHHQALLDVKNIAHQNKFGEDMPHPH
Summary of the method: (§1)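 Each isoform is run in the same format: compound dilutions (5-fold steps), 10 μM substrate, […] enzyme, one hour at 30° C, then 30 minutes with developer before fluorescence readout.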

[3] = target: T2, human recombinant HDAC1 (Homo sapiens, UniProt Q13547); experiment: HDAC1 enzyme activity inhibition (HDAC Fluorimetric Drug Discovery Kit); format: biochemical; conditions: read-out: HDAC1
T2 construct: purchased Enzo Life Science, Inc. BML-SE456
T2 sequence (Q13547 whole entry): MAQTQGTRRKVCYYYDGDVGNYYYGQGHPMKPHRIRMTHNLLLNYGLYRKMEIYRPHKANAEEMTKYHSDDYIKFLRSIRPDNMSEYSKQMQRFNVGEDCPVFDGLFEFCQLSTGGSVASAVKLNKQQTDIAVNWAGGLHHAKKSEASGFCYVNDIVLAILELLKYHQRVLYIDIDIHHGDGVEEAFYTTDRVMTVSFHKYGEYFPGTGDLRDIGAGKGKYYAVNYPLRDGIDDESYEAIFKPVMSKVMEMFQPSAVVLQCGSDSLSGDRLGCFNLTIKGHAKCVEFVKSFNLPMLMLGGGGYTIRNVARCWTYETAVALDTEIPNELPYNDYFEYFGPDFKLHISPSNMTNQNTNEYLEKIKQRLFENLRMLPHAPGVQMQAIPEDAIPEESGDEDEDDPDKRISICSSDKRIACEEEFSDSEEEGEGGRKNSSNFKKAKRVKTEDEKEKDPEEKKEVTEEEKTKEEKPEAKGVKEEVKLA
Summary of the method: as §1

[4] = human recombinant HDAC6, IC50 calculated with GraphPad Prism
[5] = human recombinant HDAC1, IC50 calculated with GraphPad Prism

Structure (SMILES): FC(F)c1nnc(-c2ccc(Cn3cc(-c4ccc5[nH]ccc5c4)nn3)nc2)o1 [Compound 4072, 2-(6-((4-(1H-indol-5-yl)-1H-1,2,3-triazol-1-yl)methyl)pyridin-3-yl)-5-(difluoromethyl)-1,3,4-oxadiazole]
- Velocity distribution (%) [1]: ** (**, 50%˜100%)
- HDAC6 selectivity (fold) ([2]; HDAC1 IC50 / HDAC6 IC50): 4854 fold
- pIC50 [2, 4]: 7.99
- pIC50 [3, 5]: < 4.30

Structure (SMILES): CN1CCN(c2cccc(-c3cn(Cc4ccc(-c5nnc(C(F)F)o5)cc4F)nn3)c2)CC1 [Compound 4337, 2-(difluoromethyl)-5-(3-fluoro-4-((4-(3-(4-methylpiperazin-1-yl)phenyl)-1H-1,2,3-triazol-1-yl)methyl)phenyl)-1,3,4-oxadiazole]
- Velocity distribution (%) [1]: *** (***, >100%)
- HDAC6 selectivity (fold) ([2]; HDAC1 IC50 / HDAC6 IC50): 2092 fold
- pIC50 [2, 4]: 7.62
- pIC50 [3, 5]: < 4.30

Structure (SMILES): Fc1cc(-c2nnc(C(F)F)o2)ccc1Cn1cc(-c2ccc3c(c2)CN(C2CCC2)CC3)nn1 [Compound 4366, 2-(4-((4-(2-cyclobutyl-1,2,3,4-tetrahydroisoquinolin-7-yl)-1H-1,2,3-triazol-1-yl)methyl)-3-fluorophenyl)-5-(difluoromethyl)-1,3,4-oxadiazole]
- Velocity distribution (%) [1]: *** (***, >100%)
- HDAC6 selectivity (fold) ([2]; HDAC1 IC50 / HDAC6 IC50): 1358 fold
- pIC50 [2, 4]: 7.43
- pIC50 [3, 5]: < 4.30

Structure (SMILES): Cc1ccc(-c2cn(Cc3ccc(-c4nnc(C(F)F)o4)cn3)nn2)cn1 [Compound 3925, 2-(difluoromethyl)-5-(6-((4-(6-methylpyridin-3-yl)-1H-1,2,3-triazol-1-yl)methyl)pyridin-3-yl)-1,3,4-oxadiazole]
- Velocity distribution (%) [1]: *** (***, >100%)
- HDAC6 selectivity (fold) ([2]; HDAC1 IC50 / HDAC6 IC50): 1424 fold
- pIC50 [2, 4]: 7.45
- pIC50 [3, 5]: < 4.30

Structure (SMILES): CCN1CCc2cc(-c3cn(Cc4ccc(-c5nnc(C(F)F)o5)cn4)nn3)ccc2C1 [Compound 4052, 2-(difluoromethyl)-5-(6-((4-(2-ethyl-1,2,3,4-tetrahydroisoquinolin-6-yl)-1H-1,2,3-triazol-1-yl)methyl)pyridin-3-yl)-1,3,4-oxadiazole]
- Velocity distribution (%) [1]: ** (**, 50%˜100%)
- HDAC6 selectivity (fold) ([2]; HDAC1 IC50 / HDAC6 IC50): 1128 fold
- pIC50 [2, 4]: 7.35
- pIC50 [3, 5]: < 4.30

Structure (SMILES): FC(F)c1nnc(-c2ccc(Cn3cc(-c4cccc5[nH]ncc45)nn3)cc2)o1 [Compound 4347, 2-(4-((4-(1H-indazol-4-yl)-1H-1,2,3-triazol-1-yl)methyl)phenyl)-5-(difluoromethyl)-1,3,4-oxadiazole]
- Velocity distribution (%) [1]: * (*, 0%˜50%)
- HDAC6 selectivity (fold) ([2]; HDAC1 IC50 / HDAC6 IC50): 6849 fold
- pIC50 [2, 4]: 8.14
- pIC50 [3, 5]: < 4.30

Structure (SMILES): O=C(c1cccc(-c2cn(Cc3ccc(-c4nnc(C(F)F)o4)cn3)nn2)c1)N1CCC1 [Compound 3886, Azetidin-1-yl(3-(1-((5-(5-(difluoromethyl)-1,3,4-oxadiazol-2-yl)pyridin-2-yl)methyl)-1H-1,2,3-triazol-4-yl)phenyl)methanone]
- Velocity distribution (%) [1]: * (*, 0%˜50%)
- HDAC6 selectivity (fold) ([2]; HDAC1 IC50 / HDAC6 IC50): 1118 fold
- pIC50 [2, 4]: 7.35
- pIC50 [3, 5]: < 4.30

Structure (SMILES): FC(F)c1nnc(-c2ccc(Cn3cc(-c4cccc(NC5CCOCC5)c4)nn3)nc2)o1 [Compound 3827, N-(3-(1-((5-(5-(difluoromethyl)-1,3,4-oxadiazol-2-yl)pyridin-2-yl)methyl)-1H-1,2,3-triazol-4-yl)phenyl)tetrahydro-2H-pyran-4-amine]
- Velocity distribution (%) [1]: *** (***, >100%)
- HDAC6 selectivity (fold) ([2]; HDAC1 IC50 / HDAC6 IC50): 2487 fold
- pIC50 [2, 4]: 7.70
- pIC50 [3, 5]: < 4.30

Structure (SMILES): CN1CCN(c2cccc(-c3cn(Cc4ccc(-c5nnc(C(F)F)o5)cn4)nn3)c2)CC1 [Compound 3867, 2-(difluoromethyl)-5-(6-((4-(3-(4-methylpiperazin-1-yl)phenyl)-1H-1,2,3-triazol-1-yl)methyl)pyridin-3-yl)-1,3,4-oxadiazole]
- Velocity distribution (%) [1]: ** (**, 50%˜100%)
- HDAC6 selectivity (fold) ([2]; HDAC1 IC50 / HDAC6 IC50): 1953 fold
- pIC50 [2, 4]: 7.59
- pIC50 [3, 5]: < 4.30

Structure (SMILES): FC(F)c1nnc(-c2ccc(Cn3cc(-c4cccc(N5CCN(C6CCC6)CC5)c4)nn3)cc2)o1 [Compound 4371, 2-(4-((4-(3-(4-cyclobutylpiperazin-1-yl)phenyl)-1H-1,2,3-triazol-1-yl)methyl)phenyl)-5-(difluoromethyl)-1,3,4-oxadiazole]
- Velocity distribution (%) [1]: ** (**, 50%˜100%)
- HDAC6 selectivity (fold) ([2]; HDAC1 IC50 / HDAC6 IC50): 917 fold
- pIC50 [2, 4]: 7.26
- pIC50 [3, 5]: < 4.30

Structure (SMILES): O=C(Nc1cccc(-c2cn(Cc3ccc(-c4nnc(C(F)F)o4)cc3F)nn2)c1)C(F)(F)F [Compound 3777, N-(3-(1-(4-(5-(difluoromethyl)-1,3,4-oxadiazol-2-yl)-2-fluorobenzyl)-1H-1,2,3-triazol-4-yl)phenyl)-2,2,2-trifluoroacetamide]
- Velocity distribution (%) [1]: * (*, 0%˜50%)
- HDAC6 selectivity (fold) ([2]; HDAC1 IC50 / HDAC6 IC50): 2222 fold
- pIC50 [2, 4]: 7.65
- pIC50 [3, 5]: < 4.30

Structure (SMILES): CC(=O)Nc1cccc(-c2cn(Cc3ccc(-c4nnc(C(F)F)o4)cc3F)nn2)c1 [Compound 3775, N-(3-(1-(4-(5-(difluoromethyl)-1,3,4-oxadiazol-2-yl)-2-fluorobenzyl)-1H-1,2,3-triazol-4-yl)phenyl)acetamide]
- Velocity distribution (%) [1]: * (*, 0%˜50%)
- HDAC6 selectivity (fold) ([2]; HDAC1 IC50 / HDAC6 IC50): 1712 fold
- pIC50 [2, 4]: 7.53
- pIC50 [3, 5]: < 4.30

Structure (SMILES): FC(F)c1nnc(-c2ccc(Cn3cc(-c4cccc(C5CCN(C6COC6)CC5)c4)nn3)nc2)o1 [Compound 4013, 2-(difluoromethyl)-5-(6-((4-(3-(1-(oxetan-3-yl)piperidin-4-yl)phenyl)-1H-1,2,3-triazol-1-yl)methyl)pyridin-3-yl)-1,3,4-oxadiazole]
- Velocity distribution (%) [1]: ** (**, 50%˜100%)
- HDAC6 selectivity (fold) ([2]; HDAC1 IC50 / HDAC6 IC50): 2183 fold
- pIC50 [2, 4]: 7.64
- pIC50 [3, 5]: < 4.30

Structure (SMILES): Fc1cc(-c2nnc(C(F)F)o2)cnc1Cn1cc(-c2cccc3[nH]ncc23)nn1 [Compound 19058, 2-(6-((4-(1H-indazol-4-yl)-1H-1,2,3-triazol-1-yl)methyl)-5-fluoropyridin-3-yl)-5-(difluoromethyl)-1,3,4-oxadiazole]
- Velocity distribution (%) [1]: *** (***, >100%)
- HDAC6 selectivity (fold) ([2]; HDAC6 over HDAC1): 2304 fold
- pIC50 ([2]; human recombinant HDAC6, same protocol as HDAC1): 7.66
- pIC50 ([3]; human recombinant HDAC1, Fluor de Lys substrate, 30° C. 60 minutes): < 4.30

Structure (SMILES): CC(C)(C)C(=O)Nc1cccc(-c2cn(Cc3ccc(-c4nnc(C(F)F)o4)cn3)nn2)c1 [Compound 3825, N-(3-(1-((5-(5-(difluoromethyl)-1,3,4-oxadiazol-2-yl)pyridin-2-yl)methyl)-1H-1,2,3-triazol-4-yl)phenyl)pivalamide]
- Velocity distribution (%) [1]: *** (***, >100%)
- HDAC6 selectivity (fold) ([2]; HDAC1 IC50 / HDAC6 IC50): 4464 fold
- pIC50 [2, 4]: 7.95
- pIC50 [3, 5]: < 4.30

Structure (SMILES): Cn1ncc2c(-c3cn(Cc4ccc(-c5nnc(C(F)F)o5)cn4)nn3)cccc21 [Compound 3842, 2-(difluoromethyl)-5-(6-((4-(1-methyl-1H-indazol-4-yl)-1H-1,2,3-triazol-1-yl)methyl)pyridin-3-yl)-1,3,4-oxadiazole]
- Velocity distribution (%) [1]: ** (**, 50%˜100%)
- HDAC6 selectivity (fold) ([2]; HDAC1 IC50 / HDAC6 IC50): 2032 fold
- pIC50 [2, 4]: 7.61
- pIC50 [3, 5]: < 4.30
